The results in this text go back to patent US7687079B2, “Methods of treating ileus” (priority 2002, dated 2010).

For one test, the system named is IL-6 mRNA. As to the kind of experiment: IL-6 mRNA expression in muscularis externae of intestinal grafts. Format: in vivo, rat. As to the method:
To investigate the sequential analysis of cytokine mRNA expression in the mucosa and muscularis, RNase protection assay was performed with the Riboquant™ kit (Pharmingen) according to the protocol of the manufacturer. […] Quantification of radioactivity of mRNA bands was performed with NIH Image, normalized to GAPDH, and expressed as a ratio of cytokine /GAPDH (n=3-4).
The effects of inhalation of CO on transplant-induced pro-inflammatory and anti-inflammatory gene expression was assessed in muscularis extracts by RT-PCR. […] Equal aliquots (5 μg) of total RNA from each sample were quantified by spectrophotometry (wavelength […]) and aliquoted at a concentration of 40 ng/μl. Peak mRNA expression was quantified in duplicate by SYBR Green two-step, real-time RT-PCR. […] Real-time PCR data were plotted as the ΔRn, fluorescence signal versus the cycle number. […] Quantification of mRNA expression was normalized to GAPDH and calculated relative to control using the comparative CT method (Schmittgen et al., J. Biochem. Biophys. Methods 46(1-2):69-8 (2000)). […]

A further test relates to HO-1 mRNA. The experiment in a line: Example 3 HO-1 mRNA by SYBR green real time RT-PCR. Format: in vivo, mouse. Conditions: IM-CO mice. Here is the method: Ileus was induced in mice by gentle manipulation of the small intestine. An incision was made to expose the abdominal cavity of the mouse, and bowel manipulation was performed by gentle poking and prodding of the small intestine (see, e.g., Schwarz et al., Gastroenterology 121(6):1354-1357 (2001)). […] Mice were exposed to CO by inhalation (250 and 500 ppm) for 1 hour immediately prior to intestinal manipulation and during the entire 24-hour recovery period. Intestinal contractility was assessed in vitro by measuring circular muscle strip contractions in response to bethanechol (0.3-300 μM) and in vivo by determining intestinal transit from the distribution of orally-fed, fluorescein-labeled dextran and calculating geometric center as described in Example 1 above. HO-1 and IL-10 mRNA expression were determined by SYBR green real time RT-PCR from extracts of muscularis extemae, as described in Example 1 above. Release of nitric oxide (NO), a potent inhibitor of smooth muscle contractility, was estimated by measuring serum total nitrite, also described in Example 1 above.

On to `[C-]#[O+]` [CO, carbon monoxide], for which the “IL-6 mRNA” value in the test with IL-6 mRNA (SITx + CO, Table 2) was determined as 22.3 ± 1.8 % GAPDH. The “reduction of mean relative IL-6 mRNA expression” value with IL-6 mRNA (SITx recipients treated with CO vs SITx, 4 hours after reperfusion, p=0.084) amounted to 40%. For the same compound, in the test on HO-1 mRNA, the “HO-1 expression versus controls” value amounted to 150 fold. In addition, in the test on HO-1 mRNA (early induction), the “HO-1 increase in expression over IM alone” value was found to be 300%.
